Measured values reported in US6492137B1, “Response element compositions and assays employing same” (The Salk Institute for Biological Studies, priority 1989, dated 2002).

Columns and labels:
TRβ [1] = biological target: T1, TRβ (Homo sapiens, UniProt P10828); assay: ΔSV-CAT reporter cotransfection assay in CV-1 cells with TRβ expression plasmid, ±T3; format: cell-based; set-up: expressed in transfected cells; host or cells: CV-1 (monkey kidney); conditions: TRβ expression vector
T1 sequence (P10828 1-461): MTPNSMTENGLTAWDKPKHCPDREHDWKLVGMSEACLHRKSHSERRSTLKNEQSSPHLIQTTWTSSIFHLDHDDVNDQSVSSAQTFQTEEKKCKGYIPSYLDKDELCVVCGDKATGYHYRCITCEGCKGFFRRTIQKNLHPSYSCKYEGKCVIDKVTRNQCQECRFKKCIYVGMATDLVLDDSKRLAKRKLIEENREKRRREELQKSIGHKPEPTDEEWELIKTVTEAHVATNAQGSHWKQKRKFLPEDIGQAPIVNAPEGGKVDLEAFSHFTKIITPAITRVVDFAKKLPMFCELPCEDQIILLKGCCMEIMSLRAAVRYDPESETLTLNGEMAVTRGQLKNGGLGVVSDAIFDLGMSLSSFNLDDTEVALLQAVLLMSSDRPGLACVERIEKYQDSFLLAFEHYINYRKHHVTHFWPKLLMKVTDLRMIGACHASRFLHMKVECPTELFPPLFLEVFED
Excerpt: Receptor expression plasmids used in the following cotransfection assays have been described previously (pRShTRβ [see Thompson, et al., Proc. Natl. Acad. Sci. U.S.A. 86: 3494-3498 (1989)]; pRShRARα [see Giguere, et al., Nature 330: 624-629 (1987)]; pRShRARβ and pRshRARγ [see Ishikawa, et al., Mol. Endocrinol, 4: 837-844 (1990)]; and pRShVDR, [Schule, et al., Cell 61: 497-504 (1990)]. A basal reporter plasmid ΔSV-CAT was constructed by replacing the TK promoter in TK-CAT [Damm, et al., Nature 339: 593-597 (1989)] with the SphI-HindIII fragment of the SV40 early promoter. All of the recombinant CAT reporter plasmids used herein harbor a single copy of the indicated oligonucleotides at the unique HindIII site upstream of the SV40 promoter. […] To improve production of receptor proteins in COS cells, a new eukaryotic expression vector pCMX was prepared by modifying the plasmid CDM8 [Seed, B., Nature 329: 840-842 (1987)]. The CDM8 was cut with MluI and StuI in order to release the DNA fragment encoding the CMV/T7 promoter, SV40 small t intron/poly A signal, polyoma virus enhancer/origin, and SV40 enhancer/origin. The resulting fragment was ligated to a larger fragment of PvuII-digested PUC19. An internal deletion was introduced between unique BamHI and BclI sites present in the DCM8 portion. The stuffer sequence flanked by XbaI sites was replaced with a synthetic polylinker coding for 5′-KpnI/Asp718-EcoRV-BamHI -MscI-NheI-3′, followed by a stretch of 5′-[…]-3′ (SEQ ID NO:48) which can function as a universal termination signal for protein translation. The coding sequence of the luciferase [de Wet, et al., Mol. Cell. Biol. 7: 725-737 (1987)] and human TRβ, RARα, and VDR was placed in the polylinker region of the pCMX, generating pCMX-LUC, Pcmx-Htrβ, pCMX-hRARα, and pCMX-hVDR, respectively. The translation start site of the RARα was modified to […] by attaching the synthetic linker encoding a consensus translation start signal [Hollenberg, et al., Cell 55: 899-906 (1988)].
For cotransfection assays, a monkey kidney cell line CV-1 was kept in Dulbecco's modified Eagle's medium (DMEM) supplemented with 10% charcoal-resin double split calf bovine serum. Transfections were performed via calcium-phosphate precipitation method as described by Umesono, et al. in Cell 57: 1139-1146 (1989), with 0.5 μg of a pRS receptor expression plasmid, 1.0 μg of a reporter CAT plasmid, 5 μg of pRAS-βGAL [Umesono, et al., Cell 57: 1139-1146 (1989)] as an internal control, and 8.5 μg of carrier plasmid pUC19. The cells were transfected for 8 hours; after washing the DNA precipitates, the cells were then incubated for an additional 36 hours with or without the ligand (T3, 100 nM; RA, 1 μM; 1,25-(OH)2 vitamin D3, 100 nM). Cell extracts were prepared for βGAL and CAT assays, as described by Umesono, et al., supra. Transfection of F9 teratocarcinoma cells was carried out employing a similar method except the cells were incubated for 12 hours in the presence of the DNA precipitates, and the RA was added at 1 μM for another 24 hours before harvesting the cells. 2, 5, and 4 μg of the reporter, pRAS-βGAL, and pUC19 were used, respectively.
Target hormone response elements described in FIG. 3 were synthesized as double-stranded oligonucleotides with an overhanging tetranucleotide (5′-agct-3′) at both ends. A single copy of these oligonucleotides was cloned at the unique HindIII site present in the basal promoter CAT construct ΔSV-CAT. Capitalized portions in the nucleotide sequences correspond to those found in the natural promoters except TREp and rGH21, which are synthetic. Bold letters indicate the “AGGTCA” motif and “X” denotes a nucleotide substitution from this motif.

TRβ [2] = biological target: T1, TRβ; assay: Gel retardation DNA-binding assay with TRβ-expressing COS cell extracts; set-up: expressed in transfected cells; host or cells: COS cells (whole-cell extract); conditions: for TRβ binding to labeled oligonucleotide probe: gel retardation, TRβ COS cell extract; for competition for TRβ binding (mobility shift assay): unlabeled competitor oligonucleotide, COS cells expressing TRβ
Summary of the method: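 Extracts of COS cells transfected with pCMX TRβ expression plasmid, 48 h post-transfection; 5 μg protein pre-incubated on ice 20 min with poly dI/dC, then 40 fmole 32P-labelled oligonucleotide 30 min at room temperature. Complexes resolved on 5% polyacrylamide gel.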

Substance	T3 responsiveness (in words) (TRβ [1])	competition for TRβ binding to 32P-labeled MHC-N (TRβ [2]; 50-fold excess of unlabeled oligonucleotide, COS cell extracts)	TRβ binding to labeled oligonucleotide probe (TRβ [2])	TRβ binding to labeled oligonucleotide probe (TRβ [2]; listed as MHC-TRE)	competition for TRβ binding (mobility shift assay) (TRβ [2])
GDR-3: identical to DR-3 except half-site changed to AGAACA, a GRE half-site (SEQ ID NO:26) (AGCTTCAGAACAAGGAGAACAGAGAGCT; DNA, backbone not given here; double-stranded DNA response element with agct overhangs, cloned into reporter)	completely inactive	–	–	–	–
GDR-4: identical to DR-4 except half-site changed to AGAACA, a GRE half-site (SEQ ID NO:28) (AGCTTCAGAACACAGGAGAACAGAGAGCT; DNA, backbone not given here; double-stranded DNA response element with agct overhangs, cloned into reporter)	completely inactive	–	–	–	–
MHC-N: 23-nucleotide core of the wild-type sequence (MHC-TRE) (SEQ ID NO:14) (AGCTGGAGGTGACAGGAGGACAGCAAGCT; DNA, backbone not given here; further chemistry not fully specified)	–	competed	specific binding	high affinity	efficient competition
TREp: optimized palindromic rat growth hormone TRE (SEQ ID NO:10) (AGCTTCAGGTCATGACCTGAGAGCT; DNA, backbone not given here; double-stranded response element with agct overhangs, cloned into reporter plasmid) [reference compound]	responsive to T3	–	–	–	efficient competition
